This passage reports Stability results from ChEMBL document CHEMBL1151840, “Synthetic oligoribonucleotides containing arabinonucleotides act as agonists of TLR7 and 8” (Bioorg Med Chem Lett, 2009).

The test system of this data set is Serum. Nature of the data set: Stability in human serum assessed as full-length compound remaining after 10 mins by anion-exchange HPLC. It counts as ADME, cell-free. As to conditions: 10 min.

With `Nc1ccn([C@@H]2O[C@H](COP(=O)(S)O[C@H]3[C@@H](O)[C@H](n4cnc5c(N)ncnc54)O[C@@H]3COP(=O)(S)O[C@H]3[C@@H](O)[C@H](n4cnc5c(=O)[nH]c(N)nc54)O[C@@H]3COP(=O)(S)O[C@H]3[C@@H](O)[C@H](n4ccc(=O)[nH]c4=O)O[C@@H]3COP(=O)(S)O[C@H]3[C@@H](O)[C@H](n4cnc5c(=O)[nH]c(N)nc54)O[C@@H]3COP(=O)(S)O[C@H]3[C@@H](O)[C@H](n4ccc(=O)[nH]c4=O)O[C@@H]3COP(=O)(S)O[C@H]3[C@@H](O)[C@H](n4cnc5c(=O)[nH]c(N)nc54)O[C@@H]3COP(=O)(S)O[C@H]3[C@@H](O)[C@H](n4ccc(=O)[nH]c4=O)O[C@@H]3COP(=O)(S)O[C@H]3[C@@H](O)[C@H](n4ccc(=O)[nH]c4=O)O[C@@H]3COP(=O)(S)O[C@H]3[C@@H](O)[C@H](n4cnc5c(=O)[nH]c(N)nc54)O[C@@H]3COP(=O)(S)O[C@H]3[C@@H](O)[C@H](n4ccc(=O)[nH]c4=O)O[C@H]3CO)[C@@H](OP(=O)(S)OCC(O)COP(=O)(S)O[C@H]3[C@@H](O)[C@H](n4ccc(N)nc4=O)O[C@@H]3COP(=O)(S)O[C@H]3[C@@H](O)[C@H](n4cnc5c(N)ncnc54)O[C@@H]3COP(=O)(S)O[C@H]3[C@@H](O)[C@H](n4cnc5c(=O)[nH]c(N)nc54)O[C@@H]3COP(=O)(S)O[C@H]3[C@@H](O)[C@H](n4ccc(=O)[nH]c4=O)O[C@@H]3COP(=O)(S)O[C@H]3[C@@H](O)[C@H](n4cnc5c(=O)[nH]c(N)nc54)O[C@@H]3COP(=O)(S)O[C@H]3[C@@H](O)[C@H](n4ccc(=O)[nH]c4=O)O[C@@H]3COP(=O)(S)O[C@H]3[C@@H](O)[C@H](n4cnc5c(=O)[nH]c(N)nc54)O[C@@H]3COP(=O)(S)O[C@H]3[C@@H](O)[C@H](n4ccc(=O)[nH]c4=O)O[C@@H]3COP(=O)(S)O[C@H]3[C@@H](O)[C@H](n4ccc(=O)[nH]c4=O)O[C@@H]3COP(=O)(S)O[C@H]3[C@@H](O)[C@H](n4cnc5c(=O)[nH]c(N)nc54)O[C@@H]3COP(=O)(S)O[C@H]3[C@@H](O)[C@H](n4ccc(=O)[nH]c4=O)O[C@@H]3CO)[C@H]2O)c(=O)n1` (stereo in doubt; 5), the Stability worked out at 75%.
